Key:
P. vivax = test system: P. vivax; set-up: method as in doi:10.1016/0035-9203(74)90194-1; settings: 7-day course at 10 mg/(kg day); cited from earlier work
[1] = Metabolism in rhesus monkey liver microsomes; type: in vitro ADME; settings: rhesus monkey, liver microsomes; 1 μM substrate, 0.4 mg/mL microsomal protein, NADPH, 37 °C, 60 min; average of three replicates; read-out: CLint
Experimental: (§1) Following the protocols described by Charman et al.,[28]1 was incubated at 37 °C with human, rat, and rhesus monkey liver microsomes. For the determination of intrinsic clearance, the substrate concentration was 1 μM and the protein concentration was 0.4 mg/mL; for qualitative metabolite identification studies, the substrate and protein concentrations were 10 μM and 1 mg/mL, respectively. The reaction was initiated by the addition of an NADPH-regenerating buffer system, and the samples were incubated for up to 60 (for Clint determination) or 180 min (for additional metabolite identification). Samples without the test compound and without NADPH were also incubated and used as controls. The reaction was quenched by protein precipitation with the addition of an equal volume of ice-cold acetonitrile solution (containing diazepam as an internal standard), followed by vortexing and centrifugation for 3 min at 10000 rpm. The supernatant was removed and analyzed by LC/MS. LC/MS analysis was conducted using a Waters Micromass Xevo G2 QTOF MS coupled to a Waters Acquity UPLC. For metabolite identification, a Supelco Ascentis Express Amide column (50 × 2.1 mm, 2.7 μm) was used with an acetonitrile–water gradient (containing 0.05% formic acid), a flow rate of 0.4 mL/min, a gradient cycle time of 6 min, and an injection volume of 5 μL. MS analysis was conducted using positive mode electrospray ionization under MSE acquisition mode, which allows simultaneous acquisition of MS spectra at low and high collision energies. The identity of putative metabolites was confirmed by the accurate mass and a comparison of the retention times and MS/MS fragmentation patterns with authentic metabolites where available. For metabolite quantitation, the method described below for the analysis of plasma samples was used.

[2] = Metabolism in human liver microsomes; type: in vitro ADME; settings: 1 μM substrate, NADPH
Experimental: as §1

[3] = Metabolism in rat liver microsomes; type: in vitro ADME; settings: 1 μM substrate, NADPH
Experimental: as §1

[4] = test system: P. vivax liver-stage parasites; experiment: P. vivax liver-stage in vitro assay, radical cure mode; type: cell-based, Plasmodium vivax; settings: 20 μM, two independent runs, threshold for activity 75% inhibition
Experimental: Compound 1 and its metabolites were tested in both prophylactic and radical cure modes for activity against P. vivax liver-stage parasites.[16],[17] In the prophylactic assay, compounds are added the day after sporozoite invasion into hepatocytes in order to characterize the compound activity against established liver forms with a parasitophorous vacuole membrane (as opposed to activity on preinvasion sporozoites) and prior to complete maturation of hypnozoites into drug-insensitive dormant forms, which appear at about 5 days postinvasion.[18] In the radical cure assay, compounds are added at day 5 postinfection to characterize activity against late-stage schizonts and mature PI4K inhibitor-insensitive hypnozoites.[19] In these experiments, the threshold for activity is 75% inhibition. […] Similarly, as previously described,[20] 10 μM concentrations of 1 and its metabolites were also tested for activity against P. cynomolgi schizont (large forms) and hypnozoite (small forms) liver-stage parasites cultured in rhesus monkey hepatocytes. In these experiments, the threshold for activity is 50% inhibition.
Compounds were prepared as 20 mM stock solutions in DMSO and tested in an eight-point semilog (1/3) dilution series from 20 μM in 384-well assay plates in both prophylactic and radical cure mode against P. vivax liver-stage parasites as previously described.[16] Following ethical approval from the Institutional Ethics Committee of the Thai Ministry of Public Health, the Ethical Review Committee of Faculty of Tropical Medicine, Mahidol University (TMEC 11-008 and 14-016), the Oxford Tropical Medicine Ethical Committee, Oxford University, England (OxTREC 17-11 and 40–14), and the Cambodian National Ethics Committee for Health Research (101NECHR), isolates of P. vivax infected blood were collected from patent volunteers in Tak province, Thailandm and Mondulkiri province, Cambodia. Samples were collected by venipuncture into heparin tubes prior to replacement of patient serum with nonimmune AB human serum and feeding to laboratory-reared Anopheles dirus cracens or An. dirus A mosquitoes via water-jacket artificial membrane feeders or the Hemotek insect feeding system (Hemotek, Blackburn, UK) set to maintain the bloodmeal temperature at 37 °C. […] Cryopreserved human hepatocytes (BioIVT, Baltimore, Maryland, USA) were thawed into InVitroGro CP Medium (BioIVT), quantified for viability by trypan blue dye exclusion, diluted to 800–1000 live cells per microliter, and 18000 live cells were plated into each well of a collagen-coated 384-well plate (Greiner, Monroe, NC, USA) by a 16-channel pipet (Finnpipette, Thermo Fisher Scientific, Waltham, MA). […]

[5] = 0.4 mg/mL protein, relative to initial substrate concentration

## CCN(CC)CCN(CCN(CC)CC)c1cc(OC)c(OC)cc1Br [Compound 1, 4-(2-bromo-4,5-dimethoxyphenyl)-1,1,7,7-tetraethyldiethylenetriamine]
P. vivax
  prevention of infections / inhibition of relapses of P. vivax: did not prevent infections or inhibit relapses
  tolerability: well-tolerated
[1]
  microsomal CLint at 1 μM: 23 ± 4.7 µL/min/mg
[2]; [5]
  average substrate depletion over a 60 min incubation: <10%
[2]; human, liver microsomes, 0.4 mg/mL microsomal protein, 37 °C, 60 min, average of three replicates, read-out: CLint
  microsomal CLint at 1 μM: < 3 µL/min/mg
[3]; [5]
  average substrate depletion over a 60 min incubation: ~90%
[3]; rat, liver microsomes, 0.4 mg/mL microsomal protein, 37 °C, 60 min, average of three replicates, read-out: CLint
  microsomal CLint at 1 μM: 100 ± 2.6 µL/min/mg
[4]
  activity against schizonts or hypnozoites: no activity

— paper PMC9016807, “Metabolic, Pharmacokinetic, and Activity Profile of the Liver Stage Antimalarial (RC-12)” (ACS Omega, 2022)
